Measured values published in the NIST ThermoML archive (doi:10.1021/je300382a).

Test: refractive index (Na D-line) (dimensionless); xn = mol fraction of the nth substance listed
Settings: 101 kPa, Liquid, Standard Abbe refractometry

NCc1ccccc1 [benzylamine] + O
refractive index
Settings	283.15 K	293.15 K	303.15 K	313.15 K	323.15 K
x1 = 0.0001	1.3338	1.3331	1.3321	1.331	1.3298
x1 = 0.0005	1.3344	1.3337	1.3326	1.3312	1.3297
x1 = 0.001	1.3351	1.3343	1.3333	1.3318	1.3303
x1 = 0.003	1.3376	1.3368	1.3357	1.3342	1.3327
x1 = 0.006	1.3411	1.3403	1.3392	1.3376	1.3361
x1 = 0.01	1.3461	1.3449	1.3441	1.3423	1.3405
x1 = 0.03	1.3683	1.367	1.3654	1.3634	1.3614
x1 = 0.05	1.387	1.3853	1.3834	1.381	1.3787
x1 = 0.07	1.4047	1.4007	1.3985	1.3961	1.3937
x1 = 0.1	1.4252	1.4214	1.4183	1.4163	1.4136
x1 = 0.2	1.468	1.4648	1.4614	1.4592	1.4569
x1 = 0.3	1.4957	1.4918	1.4879	1.4848	1.4818
x1 = 0.4	1.5143	1.5097	1.5057	1.5024	1.4985
x1 = 0.5	1.5263	1.5218	1.5172	1.5129	1.5084
x1 = 0.6	1.5343	1.5296	1.5252	1.5202	1.5159
x1 = 0.7	1.5399	1.5355	1.5307	1.5259	1.5211
x1 = 0.8	1.5447	1.5397	1.5344	1.5296	1.5247
x1 = 0.9	1.5491	1.5429	1.5375	1.5319	1.527
x1 = 1	1.5516	1.5445	1.5393	1.5328	1.5279
